The text below walks through data of patent publication US11746343B2, “Wheat plants having increased resistance to imidazolinone herbicides” (Northwest Plant Breeding Company, priority 2001, dated 2023).

Series [1] deals with AHAS enzyme from wild type Gunner wheat. Kind of series: in vitro AHAS enzyme activity, enzyme extracted from wild type wheat. It is filed as biochemical, Triticum aestivum. Details: unit of the concentration uncertain. The source says: (§1) Both the AP205CL and AP602CL wheat plants are tolerant to imidazolinone herbicides due to a mutation of the AHAS enzyme that is resistant to inhibition by these herbicides in vitro. […] The values in FIG. 1 are expressed as a percent of uninhibited activity. […] This activity continues to decline to nearly 100 percent inhibition of the enzyme at higher herbicide concentrations ([…]). In contrast, the AHAS enzyme extracted from herbicide tolerant AP205CL plants retains nearly 90 percent of its activity at the […] imazamox concentration, and approximately one third of its activity at the higher (50 µM to 100 µM) concentrations. The AHAS enzyme extracted from herbicide tolerant AP602CL plants retains nearly 80-100 percent of its activity at the […] imazamox concentration, and nearly half of its activity at the higher ([…]) concentrations. These levels of activity are sufficient to allow the tolerant wheat plants to survive the application of imazamox, as was observed during the selection process (Example 1).
(§2) AHAS is known to be feedback inhibited by the branched chain amino acids. Valine and leucine in combination are especially effective inhibitors.

Series [2] concerns AHAS enzyme extracted from herbicide tolerant AP205CL plants. Kind of series: in vitro AHAS enzyme activity, enzyme extracted from AP205CL plants. Format: biochemical, Triticum aestivum.
From the text: as §1, §2

Series [3] relates to AHAS enzyme extracted from herbicide tolerant AP602CL plants. Kind of series: in vitro AHAS enzyme activity, enzyme extracted from AP602CL plants. Format: biochemical, Triticum aestivum.
From the text: as §1, §2

The test system of series [4] is AHAS extracted from Madsen1. Kind of series: in vitro AHAS activity, Madsen1 compared to wild type Madsen. It is filed as biochemical, Triticum aestivum. The source says: Because the tolerance in Madsen1 is due to a mutation in the AHAS enzyme rendering it resistant to inhibition by imidazolinone herbicides, the in vitro activity of AHAS extracted from wild type plants (not having the mutation for tolerance) can be compared to the in vitro activity of AHAS extracted from tolerant plants in the presence of varying concentrations of an imidazolinone (IMI) herbicide. Madsen1 was compared to the wild type variety Madsen.

The next series has as its system Madsen1 wheat plants. Kind of series: greenhouse trial of tolerance of Madsen1 to imazamox. It is filed as in vivo, Triticum aestivum. The following applies: 40 and 80 g/ha, 14 days after treatment, control Teal. The method, then:
Madsen1 was evaluated for tolerance to the imidazolinone herbicide imazamox at 40 and 80 g/ha in a greenhouse trial. The susceptible wheat cultivar Teal was used as a control. Evaluation was made 14 days after treatment. Injury was scored on a 0-9 scale, 0 representing no injury and 9 representing plant death.

The subject of another series is Madsen1 wheat line. Kind of series: selection of tolerant Madsen line (M2 field, M3 greenhouse). It is filed as in vivo, Triticum aestivum. The protocol:
Seeds of the soft white winter wheat variety Madsen, were pre-soaked in tap water. After decanting the tap water, a solution of 0.03% EMS and 0.02% DES was poured into the seed container. The container was shaken every 10-15 minutes during the course of a two-hour treatment. The EMS and DES solution was decanted and a solution of 0.02% sodium azide in 0.001 M phosphate buffer was added. The container again was shaken every 10-15 minutes during the course of a two-hour treatment. Seeds were then rinsed in tap water and dried. After drying, seeds were planted. Planted seeds represented the M1 generation. M1 plants were allowed to self-pollinate and the M2 seed harvested as a bulk. Approximately 0.2 hectares of M2 seed were planted in the field and resultant plants treated with an imazamox rate of 40 g. ai/ha. Twelve M2 plants were identified as tolerant. These plants were dug, and sent to Pullman, Wash. for vernalization and M3 seed production. M3 seed from each of the M2 plants were planted in the greenhouse and resultant plants were vernalized for 8 weeks, then treated with 80 g. ai/ha of Imazamox. Plants were selected based upon observed levels of tolerance and repotted for seed production. The M2:3 line designated Madsen1 selected as tolerant to 40 g/ha imazamox as an M2 was confirmed as tolerant to imazamox at the 80 g/ha rate applied to M3 progeny.

Series [5] has as its system HRS 198205 (AP205CL) wheat plants. Kind of series: field plots and seed increases sprayed with imazamox, HRS 198205 / AP205CL. Format: in vivo, Triticum aestivum. The protocol:
(§3) Progeny seed of HRS 198205 and HRS198208 were collected and planted in the field. Field plots were sprayed with imazamox herbicide at 80 g. a.i./ha.+1.0% Sun-It adjuvant (v/v). […] Additionally, seed harvested from plots of five of the HRS198208 sub-lines were combined into a single lot that was designated AP602CL (referred to above as Gunner IMI 208). Seed increases were conducted at several locations. All seed increases were sprayed with imazamox herbicide at 40 g. a.i./ha+0.25% (v/v) non-ionic surfactant.

Series [6] deals with HRS198208 (AP602CL) wheat plants. Kind of series: field plots and seed increases sprayed with imazamox, HRS198208 / AP602CL. Format: in vivo, Triticum aestivum. The protocol:
as §3

With `COCc1cnc(C2=NC(C)(C(C)C)C(=O)N2)c(C(=O)O)c1` (stereo not drawn) [imazamox], the “inhibition of the AHAS enzyme” value in series [1] (higher herbicide concentrations (100 (unit uncertain))) is roughly 100%. For the same compound, the “reduction of AHAS activity” value in series [1] (low concentration (1 (unit uncertain)) of imazamox) fell in the range of 1 to 35%. For the same compound, the AHAS activity retained in series [2] (1 M imazamox) was roughly 90%; in series [3] (1 M imazamox) it was 80-100%. In addition, the “AHAS activity retained (fraction of its activity)” value in series [2] (higher (50 M to 100 µM) imazamox concentrations) was “approximately one third”; in series [3] (higher (50 µM to 100 µM) imazamox concentrations) it was “half”. Further, the “residual uninhibited AHAS” value in series [4] (100 μM imazamox, Madsen1) is “sufficient to provide a herbicide tolerant response”. Also, in series [4] (Madsen1 compared to wild type Madsen), the “uninhibited AHAS enzyme activity as imazamox concentration increased” value is listed as “decreased faster in wild type lines than in Madsen)”. Further, in the series on Madsen1 wheat plants, the “tolerance (injury scored on a 0-9 scale)” value was “has tolerance”. Besides, the “tolerance of M2 plants” value in the series with Madsen1 wheat line (40 g/ha imazamox, field, M2) is reported as “tolerant”. In addition, in the series on Madsen1 wheat line (80 g/ha imazamox, greenhouse, M3 progeny), the “tolerance of M3 progeny” value was “tolerant”. For the same compound, the “herbicide susceptible plants in seed increases” value is “No herbicide susceptible plants were observed” in series [5] (40 g. a.i./ha + 0.25% (v/v) non-ionic surfactant, AP205CL) and “No herbicide susceptible plants were observed” in series [6] (40 g. a.i./ha + 0.25% (v/v) non-ionic surfactant, AP602CL). The “tolerance in field plots” value is “same level of acceptable tolerance” in series [5] (80 g. a.i./ha + 1.0% Sun-It adjuvant (v/v), HRS 198205) and “same level of acceptable tolerance” in series [6] (80 g. a.i./ha + 1.0% Sun-It adjuvant (v/v), HRS198208).
